Results reported in patent US20200068890A1 (Person to Whom the Inventor is Obligated to Assign, priority 2017, published 2020).

Experiments:
A. thaliana DHDPS = system: T1, A. thaliana DHDPS; assay: DHDPS-DHDPR coupled assay, dose response inhibitor assay; format: biochemical, Arabidopsis thaliana
T1 construct: AtDHDPS|10|0.00008; no borders, domain or tags given
Experimental: DHDPS enzyme activity was determined using the coupled assay in a Cary 4000 UV/Vis spectrophotometer at 340 nm in 1 cm acrylic cuvettes. A master mix was prepared for each reaction as per Table 1. Reaction mixtures containing enzymes, pyruvate, buffer and NADPH were incubated at 30° C. for 12 mins before the addition of ASA to initiate the reaction. The oxidation of NADPH to NADP^+ was then monitored at 340 nm at 30° C. as a function of time. The initial rate (ΔA340·min^−1) was calculated from the slope of the linear portion of the A340 versus time profile. All experiments were carried out in triplicate. The enzyme kinetic parameters, including KM values, were determined using the Michaelis-Menten equation (Equation 1). Unless otherwise stated, all kinetic data were fitted using the built-in equations in GraphPad Prism.
To determine/C50 values for the inhibitors, A. thaliana DHDPS enzyme activity was measured using the coupled assay (detailed above) in the presence of increasing concentrations of inhibitor. The initial rate was then plotted as a function of the log 10 of the inhibitor concentration and the/C50 determined according to Equation 2.

[1] = system: human kidney cells (HEK293); assay: MTT viability assay; details: for % Viability Remaining 1 / % Viability Remaining 2 / % Viability Remaining 3: 48 hrs
Experimental: (§1) Cells were harvested and resuspended in growth media (5-10 ml) to count. Cells were diluted to the appropriate concentration (5×10^3), and seeded into 96-well plates as follows: (a) 50 μl of cells per well, (b) 100 μl of growth media in the Blank wells, (c) 100 μl PBS in outer wells (to prevent dehydration of media from the cells). Cells were incubated overnight at 37° C. (5% CO2).
(§2) Compounds were prepared as serial dilutions in growth media. Each treatment concentration was performed in triplicate. 50 μl/well of prepared compound was added to cells.
(§3) A no treatment triplicate (100% viability) was also included by adding 50 μl of growth media to cells. Plates were returned to the incubator for 48 hrs.
(§4) MTT powder in 1×PBS was prepared at 5 mg/ml and filter sterilised. MTT was added to serum-free media to a final concentration of 1 mg/ml. 100 μl of the MTT solution (1 mg/ml) was added to each well, including 0 μM and blank wells. Plates were incubated at 37° C. in incubator for 3 hrs. Following incubation, the media was removed from wells without disrupting the purple crystals formed. 100 μl of DMSO was added to each well using a multichannel pipette. The plates were shaken on the plate shaker until all the crystals have dissolved. The absorbance was measured at 570 nm using a plate reader. The data was analysed using Microsoft Excel. For each treatment concentration the average was calculated, the blank was subtracted and the cell viability was determined as a percentage of the no treatment control (DMSO vehicle control).

[2] = system: human liver cells (HepG2); assay: MTT viability assay; details: for % viability 1 / % viability 2 / % viability 3: 48 hrs
Experimental: as §1, §2, §3, §4

Structure (SMILES): COc1ccc(/C=C2\SC(=O)N(CC(=O)O)C2=O)cn1 [Compound 37, (Z)-2-(5-((6-Methoxypyridin-3-yl)methylene)-2,4-dioxothiazolidin-3-yl)acetic Acid]
- IC50 (A. thaliana DHDPS): 46 µM

Structure (SMILES): O=C(O)CN1C(=O)S/C(=C\c2cccc3ccccc23)C1=O [Compound 38, (Z)-2-(5-(Naphthalen-1-ylmethylene)-2,4-dioxothiazolidin-3-yl)acetic Acid]
- IC50 (A. thaliana DHDPS): 97 µM

Structure (SMILES): O=C(O)CN1C(=O)S/C(=C\c2ccc3ccccc3c2)C1=O [Compound 39, (Z)-2-(5-(Naphthalen-2-ylmethylene)-2,4-dioxothiazolidin-3-yl)acetic Acid]
- IC50 (A. thaliana DHDPS): 76.1 µM

Structure (SMILES): O=C(O)CN1C(=O)S/C(=C\c2ccc3ccccc3n2)C1=O [Compound 40, 2-(2,4-Dioxo-5-(quinolin-2-ylmethylene)thiazolidin-3-yl)acetic Acid]
- IC50 (A. thaliana DHDPS): 110 µM

Structure (SMILES): O=C(O)CN1C(=O)S/C(=C\c2ccc(OCc3ccccc3)cc2)C1=O [Compound 41]
- IC50 (A. thaliana DHDPS): 71.4 µM

Structure (SMILES): COc1ccc(/C=C2\NC(=O)N(CC(=O)O)C2=O)cc1 [Compound 42, (Z)-2-(4-(4-Methoxybenzylidene)-2,5-dioxoimidazolidin-1-yl)acetic Acid]
- IC50 (A. thaliana DHDPS): 66.1 µM
- % Viability Remaining 1 ([1]; HEK293, 12.5 μM): 104%
- % Viability Remaining 2 ([1]; HEK293, 12.5 μM): 93.9%
- % Viability Remaining 3 ([1]; HEK293, 12.5 μM): 87.6%
- % Viability Remaining 1 ([1]; HEK293, 25 μM): 110%
- % Viability Remaining 2 ([1]; HEK293, 25 μM): 93.9%
- % Viability Remaining 3 ([1]; HEK293, 25 μM): 87.6%
- % Viability Remaining 1 ([1]; HEK293, 50 μM): 80.6%
- % Viability Remaining 2 ([1]; HEK293, 50 μM): 94.5%
- % Viability Remaining 3 ([1]; HEK293, 50 μM): 98.9%
- % Viability Remaining 1 ([1]; HEK293, 100 μM): 110%
- % Viability Remaining 2 ([1]; HEK293, 100 μM): 107%
- % Viability Remaining 3 ([1]; HEK293, 100 μM): 115%
- % Viability Remaining 1 ([1]; HEK293, 200 μM): 94.0%
- % Viability Remaining 2 ([1]; HEK293, 200 μM): 99.6%
- % Viability Remaining 3 ([1]; HEK293, 200 μM): 94.1%
- % Viability Remaining 1 ([1]; HEK293, 400 μM): 105%
- % Viability Remaining 2 ([1]; HEK293, 400 μM): 103%
- % Viability Remaining 3 ([1]; HEK293, 400 μM): 80.9%
- toxicity to HEK293 cells (in words) ([1]; HEK293, MTT, up to 400 μM (Defensin 100 μM)): effectively nontoxic
- % viability 1 ([2]; HepG2, 12.5 μM): 81.0%
- % viability 2 ([2]; HepG2, 12.5 μM): 99.1%
- % viability 3 ([2]; HepG2, 12.5 μM): 70.9%
- % viability 1 ([2]; HepG2, 25 μM): 81.0%
- % viability 2 ([2]; HepG2, 25 μM): 99.1%
- % viability 3 ([2]; HepG2, 25 μM): 70.9%
- % viability 1 ([2]; HepG2, 50 μM): 88.8%
- % viability 2 ([2]; HepG2, 50 μM): 98.3%
- % viability 3 ([2]; HepG2, 50 μM): 90.4%
- % viability 1 ([2]; HepG2, 100 μM): 88.0%
- % viability 2 ([2]; HepG2, 100 μM): 86.0%
- % viability 3 ([2]; HepG2, 100 μM): 84.1%
- % viability 1 ([2]; HepG2, 200 μM): 98.4%
- % viability 2 ([2]; HepG2, 200 μM): 101%
- % viability 3 ([2]; HepG2, 200 μM): 82.4%
- % viability 1 ([2]; HepG2, 400 μM): 80.9%
- % viability 2 ([2]; HepG2, 400 μM): 82.9%
- % viability 3 ([2]; HepG2, 400 μM): 82.1%
- toxicity to HepG2 cells (in words) ([2]; HepG2, MTT, up to 400 μM (Defensin 100 μM)): effectively nontoxic

Structure (SMILES): COc1ccc(/C=C2\SC(=S)N(CC(=O)O)C2=O)cc1 [Compound 43, (Z)-2-(5-(4-Methoxybenzylidene)-4-oxo-2-thioxothiazolidin-3-yl)acetic Acid]
- IC50 (A. thaliana DHDPS): 540 µM

Structure (SMILES): COc1ccc(/C=C2\NC(=S)N(CC(=O)O)C2=O)cc1 [Compound 44, (Z)-2-(4-(4-Methoxybenzylidene)-5-oxo-2-thioxoimidazolidin-1-yl)acetic Acid]
- IC50 (A. thaliana DHDPS): 222 µM

Structure (SMILES): COc1ccc(/C=C2\SC(=O)NC2=O)cc1 [Compound 45, (Z)-5-(4-Methoxybenzylidene)thiazolidine-2,4-dione]
- IC50 (A. thaliana DHDPS): 70.8 µM

Structure (SMILES): COc1ccc(/C=C2\SC(=S)NC2=O)cc1 [Compound 46, (Z)-5-(4-Methoxybenzylidene)-2-thioxothiazolidin-4-one]
- IC50 (A. thaliana DHDPS): > 250 µM

Structure (SMILES): COc1ccc(/C=C2\NC(=S)NC2=O)cc1 [Compound 47, (Z)-5-(4-Methoxybenzylidene)-2-thioxoimidazolidin-4-one]
- IC50 (A. thaliana DHDPS): 323 µM

Structure (SMILES): COc1ccc(/C=C2\SC(=N)NC2=O)cc1 [Compound 48, (Z)-2-Imino-5-(4-methoxybenzylidene)thiazolidin-4-one]
- IC50 (A. thaliana DHDPS): 156 µM

Structure (SMILES): COc1ccc(/C=C2\SC(=O)N(Cc3nnn[nH]3)C2=O)cc1 [Compound 49, (Z)-3-((1H-Tetrazol-5-yl)methyl)-5-(4-methoxybenzylidene)thiazolidine-2,4-dione]
- IC50 (A. thaliana DHDPS): 89.1 µM

Structure (SMILES): COc1ccc(/C=C2\SC(=O)N(CCC(=O)O)C2=O)cc1 [Compound 50, (Z)-3-(5-(4-Methoxybenzylidene)-2,4-dioxothiazolidin-3-yl)propanoic Acid]
- IC50 (A. thaliana DHDPS): > 250 µM

Structure (SMILES): COc1ccc(/C=C2\SC(=O)N(CCCC(=O)O)C2=O)cc1 [Compound 51, (Z)-4-(5-(4-Methoxybenzylidene)-2,4-dioxothiazolidin-3-yl)butanoic Acid]
- IC50 (A. thaliana DHDPS): 66.8 µM

Structure (SMILES): COc1ccc(CC2SC(=O)N(CC(=O)O)C2=O)cc1 (stereo not drawn) [Compound 52]
- IC50 (A. thaliana DHDPS): > 250 µM
